How the values were obtained:
[1] = tested on: Fusobacterium nucleatum (ATCC10953); assay: Bacterial removal from root canals of inoculated extracted human mandibular molars, instrumentation/irrigation, qPCR; type: cell-based; conditions: pre- vs post-instrumentation/irrigation, human mandibular molars incubated 14 days anaerobic
Protocol: (§1) Forty human mandibular molars were accessed, sterilized, inoculated with Enterococcus faecalis (OG1RF) and Fusobacterium nucleatum (ATCC10953), and incubated for 14 days under anaerobic conditions. Teeth were divided into 3 groups (n=10): 1) 6.15% NaOCl, 2) 8.25% NaOCl, 3) Cysteamine. Controls (n=5): negative without inoculation and positive without instrumentation/irrigation. Mesiobuccal and mesiolingual canals were instrumented using Vortex Blue to 30/.04 and the corresponding irrigant, followed by neutralization with EDTA and saline. Samples were collected pre- and post-instrumentation/irrigation. Total DNA was extracted and quantitative real-time PCR was performed. Data were analyzed using one-way ANOVA with Bonferroni's multiple comparisons (p<0.05). See FIG. 1 for a schematic representation of the methods.

[2] = tested on: Enterococcus faecalis (OG1RF); assay: as above; type: cell-based; conditions: pre- vs post-instrumentation/irrigation, human mandibular molars incubated 14 days anaerobic
Protocol: as §1

Structure (SMILES)	percent reduction in Fusobacterium nucleatum ([1]; Cysteamine irrigant) [%]	percent reduction in Enterococcus faecalis ([2]; Cysteamine irrigant) [%]	percent reduction in Fusobacterium nucleatum ([1]; 6.15% NaOCl irrigant) [%]	percent reduction in Fusobacterium nucleatum ([1]; 8.25% NaOCl irrigant) [%]	percent reduction in Enterococcus faecalis ([2]; 6.15% NaOCl irrigant) [%]	percent reduction in Enterococcus faecalis ([2]; 8.25% NaOCl irrigant) [%]
NCCS [Cysteamine]	68.5	60	–	–	–	–
OCl [NaOCl, sodium hypochlorite]	–	–	59.9	63.4	49	54
